Results on two substances are retold here after patent US8592374B2, “Neurotrophic peptides” (Research Foundation for Mental Hygiene, Inc., priority 2007, dated 2013).

Assay [1] concerns neural progenitor cells of the dentate gyrus. The assay is described as follows: Stereological counts of BrdU-IR cells in subregions of the hippocampus, 30-day pellets. The note with it: for Stereological counts (±SEM) of BrdU-IR cells, GCL / Stereological counts (±SEM) of BrdU-IR cells, Hil / Stereological counts (±SEM) of BrdU-IR cells, Mol / Stereological counts (±SEM) of BrdU-IR cells, iGCL / Stereological counts (±SEM) of BrdU-IR cells, oGCL: 30-day treated mice (n = 5/group). Format: in vivo, mice. On the procedure:
All in vivo studies for characterization of peptides (stereology and behavioral analysis) were performed on 8-10-month-old female retired breeders of C57Bl6 background. The animals were acclimatized for at least 3 weeks to exclude occasional pregnant mice from the studies. Mice were group-housed (3 animals per cage) with a 12:12 light:dark cycle and with free access to food and water. All procedures were conducted in accordance with approved protocols from our institutional Animal Welfare Committee.
(§1) To study neurogenesis, mice received subcutaneous implants of extended release depot pellets containing either CNTF peptides 6a or 6c for 30 days of continuous dosing (Innovative Research of America, Sarasota, Fla.). For control groups, the pellets consisted of the carrier biopolymer only. For implantation, the mice were anesthetized with 2.5% Avertin (0.38 ml for a 25 g animal). Under sterile conditions, the pellets were then subcutaneously implanted along the anterolateral aspect of the right shoulder with a precision trochar (Innovative Research of America). The animals were then transferred to the animal colony after recovery from anesthesia. There were no complications associated with the implantation and treatment. BrdU was given as two daily i.p. injections (100 mg/kg/dose) for five days starting on day 2 of peptide treatment. Neurogenesis was assessed in the dentate gyrus (DG) by counting the number of BrdU-immunoreactive (BrdU-IR), BrdU-DCX-IR and BrdU-NeuN-IR cells in various layers of the DG. Employing principles of unbiased stereology, the optical fractionator method was used to estimate cell counts for the DG.
At the end of treatment, all animals were anesthetized with an overdose of sodium pentobarbital and transcardially perfused with 0.1 M PBS. After perfusion, the brains were removed from the skull, the left hemisphere was immediately frozen for future biochemical analysis and the right hemisphere was fixed in 4% paraformaldehyde in 0.1 M PBS for at least 24 hours at room temperature. Tissues were then stored in 30% sucrose solutions at 4° C. until sectioning. The brains were sectioned sagittaly on a freezing sliding microtome at […] through the entire hippocampus and the sections were stored in glycol anti-freeze solution (Ethylene glycol, glycerol and 0.1 M PBS in 3:3:4 ratio) at −20° C. till further processing.
(§2) Immunohistochemistry was performed as described elsewhere (Kuhn et al., J. Neurosci 17 (15) (1997): 5820-5829). Briefly, every 5th brain section was chosen for quantification of cell number and every 10th section was chosen for staining intensity scanning. Immunohistochemistry was performed on free floating sections. For BrdU immunohistochemistry, epitope retrieval and staining were performed as previously described (Kuhn et al., J. Neurosci 17 (15) (1997): 5820-5829).
Neurogenesis was assessed in the DG by counting the number of BrdU-immunoreactive (BrdU-IR), BrdU-DCX-IR and BrdU-NeuN-IR cells in various layers of the DG. The granule cell layer (GCL) was subdivided into an inner and outer half (iGCL and oGCL). The iGCL consisted of the subgranular zone (SGZ, defined as a 2-3 nuclei thick layer bordering the GCL) and the inner half of the GCL adjacent to the Hilus (Hil); the outer GCL (oGCL) was defined as the half of the GCL adjacent to the Molecular layer (Mol). A cell in the middle of the GCL was considered part of the iGCL and a cell bordering the GCL in the Mol was included in oGCL counts. […] Hil included the superficial polymorphic layer.
All sections were collected using the random uniform sampling scheme. For BrdU-IR cells, counting was performed on every 5th section using 40× oil objective of a Nikon 90i fluorescent microscope equipped with Nikon C1 three laser confocal system and a Nikon DS U1 digital camera. Employing principles of unbiased stereology, the optical fractionator method was used to estimate cell counts for the DG (West et al., Anat Rec 231 (1991): 482-497). […]

Assay [2] relates to granule cell layer of the dentate gyrus. Briefly: Stereological counts of DCX-, BrdU-NeuN- and c-Fos-NeuN-IR cells in the granule cell layer. Format: in vivo, mice. The note with it: for Stereological counts (±SEM) of cells expressing DCX in the granule cell layer / Stereological counts (±SEM), NeuN-BrdU/BrdU in the granule cell layer / Stereological counts (±SEM) of c-fos-NeuN cells in the granule cell layer: 30-day treated mice (n = 5/group); for Stereological counts (±SEM) of c-fos-NeuN cells in the granule cell layer: basal activity. On the procedure:
as §1
(§3) The following primary antibodies were used for immunohistochemistry: anti-BrdU (1:400; Accurate) a rat monoclonal raised against BrdU; anti-DCX (1:200; Santa Cruz Biotechnology Inc.), a goat polyclonal antibody raised against an 18-amino acid peptide representing residues […] of human doublecortin; anti-NeuN (1:500; Chemicon), a mouse monoclonal antibody raised against purified cell nuclei from mouse brain; Anti-c-Fos (Ab-5) (1:500; Calbiochem), a rabbit polyclonal antibody raised against a synthetic peptide corresponding to amino-acids 4-17 of human c-Fos; SMI52 (1:1000; Sternberger Monoclonals), a mouse monoclonal antibody specific for the mature neuronal marker MAP2a,b; anti-synaptophysin, SYN (1:200; Chemicon), a mouse monoclonal antibody raised against vesicular fraction of bovine brain. The following secondary antibodies were used: Alexa 488-conjugated goat anti-mouse IgG antibody and Alexa 594-conjugated goat anti-rabbit or anti-rat IgG antibody (Molecular Probes); biotinylated anti-rat IgG antibody and Cy5-conjugated goat anti-mouse antibody (Jackson ImmunoResearch).
as §2
For BrdU-DCX-, BrdU-NeuN-, and c-Fos-NeuN-IR cells, only GCL (consisting of iGCL and oGLC described above) was counted using 100× oil objective in every 10th section. To ensure objectivity, z-stacks were collected for each double IR cell and analyzed later by generating maximum projection and 3D constructs.

In assay [3] the test system is GCL of the dentate gyrus. Briefly: MAP2 and synaptophysin expression in the GCL (mean pixel intensity), Example 4. The note with it: 30-day treatment. Format: in vivo, mice.
Description: as §3, with “The following secondary antibodies were used: Alexa 488-conjugated goat anti-mouse IgG antibody and Alexa 594-conjugated goat anti-rabbit or anti-rat IgG antibody (Molecular Probes); biotinylated anti-rat IgG antibody and Cy5-conjugated goat anti-mouse antibody (Jackson ImmunoResearch).” left out
For MAP2 and Synaptophysin IR, the entire area of GCL was outlined on every 10th section. Maximum projection images were then generated based on confocal z-stacks, and the antibody staining was quantitated by measuring mean pixel intensity (MPI) with the help of Image-Pro Plus 5.0 software (Media Cybernetics).

Assay [4] relates to normal adult mice. Briefly: Morris Water Maze task, CNTF 6a / CNTF 6c pellets 30 days. Format: in vivo. The note with it: for learning in the spatial reference memory task (swim latencies): 30-day pellets, 20 training sessions over 4 days; for percent time spent in the target quadrant across three probe trials: P1, P2, P3. The protocol: For behavioral studies, performance on the Morris Water Maze task was assessed in three groups of 10 mice each (placebo, CNTF6a and CNTF6c) which received peptide treatment for 30 days. To avoid daily stress due to injections, all animals undergoing behavioral studies received subcutaneous implants of CNTF 6a, CNTF 6c or placebo pellets as described above.
All animals for behavioral testing were coded such that the experimentator was blind to the assignment of the animals to specific treatment groups. The Morris Water Maze procedure was performed using a 110 cm diameter circular tank. Before training, the mice were handled gently for 2-3 min/day during 3 days to minimize non-specific stress. Acquisition was started with the submerged (invisible) escape platform in the North-East quadrant and each animal was given 60 sec to find the submerged escape platform. […] Five such acquisition trials were given on each day, for four consecutive days. A test for retention, or probe trial, was given 24 hours later. During the probe trial the mouse was allowed to swim in the tank without the escape platform for 60 seconds. This was followed by second and third probe trials 15 and 30 days from the first probe trial. Each probe trial was immediately followed by a “retraining session” consisting of 5 trials/animal to consolidate learned behavior.
The measures of learning were the time and distance swum to reach the escape platform. For retention during the probe trial, the tank was divided into four imaginary quadrants and a small zone where the escape platform had been (virtual platform). The measures of retention were the percent of time spent and the percent of distance swum in each quadrant, and the number of entries into the platform zone.
Mouse behavior in the Morris Water Maze was monitored by a Samsung Digital Camera (SDC 4304) mounted to the ceiling and tracked and timed by a SMART (Pan Lab/San Diego Instruments) version 2.0.14 software.
Since normal adult mice were used as experimental animals, it was crucial not to miss any effect on memory acquisition and learning that the 30-day peptide treatment might have had. Therefore, a partial training paradigm was used to evaluate learning and memory in the Morris Water Maze. Treated mice were trained on the Morris Water Maze for a total of 20 sessions spanning 4 days after which they were subjected to the first probe trial (P1). Two additional probe trials (P2 and P3) were administered 15 and 30 days after P1. […] Learning was evaluated in terms of latency and distance traveled to reach the invisible escape platform. Retention was measured on probe trials by the percent of time and travel distance in the target quadrant, and the number of crossings of the virtual platform.

Setting [5] is: 30-day pellets, 50 nmol/peptide/animal/day.

Regarding Ac-DGGL-NH2 [CNTF 6c], in assay [1] (30-day pellets), the “BrdU-IR cells in oGCL, Mol or Hil compared to control” value is “no significant differences”. Moreover, in assay [1] (setting [5]), the “increase of BrdU-IR cell counts in the GCL compared to placebo” value is recorded as 31% and the “increase of number of BrdU-IR cells in the iGCL compared to control” value was found to be 45%. Also, in assay [1], the “Stereological counts (±SEM) of BrdU-IR cells, GCL” value is 560 ± 24; the “Stereological counts (±SEM) of BrdU-IR cells, Hil” value amounted to 121 ± 16; the “Stereological counts (±SEM) of BrdU-IR cells, Mol” value turned out to be 487 ± 28; the “Stereological counts (±SEM) of BrdU-IR cells, iGCL” value is recorded as 486 ± 31. For the same substance, in assay [1], the “Stereological counts (±SEM) of BrdU-IR cells, oGCL” value was found to be 74 ± 10. Also, in assay [2], the “Stereological counts (±SEM) of cells expressing DCX in the granule cell layer” value turned out to be 656 ± 43; the “Stereological counts (±SEM), NeuN-BrdU/BrdU in the granule cell layer” value is 39 ± 2; the “Stereological counts (±SEM) of c-fos-NeuN cells in the granule cell layer” value was 247 ± 23. In assay [2] (30-day treatment), the “increase in BrdU-NeuN-IR cells in the GCL compared with placebo” value stood at 62% and the “increase of DCX-IR cells in the GCL compared to placebo” value was about 91%. Moreover, the “increase in number of mature neurons (NeuN-IR) co-expressing c-fos in the GCL” value in assay [2] (30-day treatment, without behavioral stimulation) is on record as about 47%. Further, in assay [3], the “increase of MAP2 expression in the GCL (mean-pixel intensity)” value worked out at 31% and the “increase of synaptophysin expression in the GCL (mean-pixel intensity)” value is given as 26%. Further, in assay [4], the “learning in the spatial reference memory task (swim latencies)” value was “no effect” and the “percent time spent in the target quadrant across three probe trials” value was “spent the same percent amount of time in the target quadrant”.
“V-G-D-G (VGDG; neurotrophic and/or neurogenic peptide) [CNTF 6a]”: the “BrdU-IR cell numbers in the four sub-regions of the DG” value in assay [1] (30-day pellets) is given as “no effect”. In addition, the “increase of BrdU-IR cell counts in the GCL compared to placebo” value in assay [1] (setting [5]) is reported as “not significant effect”. In assay [1], the “Stereological counts (±SEM) of BrdU-IR cells, GCL” value came out at 493 ± 28; the “Stereological counts (±SEM) of BrdU-IR cells, Hil” value was found to be 126 ± 8; the “Stereological counts (±SEM) of BrdU-IR cells, Mol” value stood at 538 ± 99; the “Stereological counts (±SEM) of BrdU-IR cells, iGCL” value is on record as 382 ± 15. In addition, the “Stereological counts (±SEM) of BrdU-IR cells, oGCL” value in assay [1] turned out to be 110 ± 13. Moreover, in assay [2], the “Stereological counts (±SEM) of cells expressing DCX in the granule cell layer” value was determined as 360 ± 33; the “Stereological counts (±SEM), NeuN-BrdU/BrdU in the granule cell layer” value is listed as 19 ± 2; the “Stereological counts (±SEM) of c-fos-NeuN cells in the granule cell layer” value is on record as 214 ± 27. In assay [2] (30-day treatment), the “increase in BrdU-NeuN-IR cells in the GCL compared with placebo” value is listed as “no effect” and the “increase of DCX-IR cells in the GCL compared to placebo” value is “did not show any significant difference”. In assay [4], the “learning in the spatial reference memory task (swim latencies)” value is “no effect”; the “percent time spent in the target quadrant across three probe trials” value is “reduced this time during subsequent P2 and P3”.
